Assay results reported in patent US20060018826A1, “Biologic modulations with nanoparticles” (priority 2002, published 2006).

Test system: hormone-insensitive PC3 cells
Experiment: Growth inhibition in prostate carcinoma cells
Type: cell-based
Protocol: In these studies, cells were seeded at 5,000 cells per untreated well.

“GTCCCGACATGTCAGACAGG (antisense GTCCCGACATGTCAGACAGG; chemistry not given here) [SEQ ID NO 1, antisense 20 mer spanning the translation start site of CK2α]” was tested. Which “IC50 as % of cisplatin's IC50” value did it give?
The value was 65%.
